In article PMC6934184, “Selective DNA-PKcs inhibition extends the therapeutic index of localized radiotherapy and chemotherapy” (The Journal of Clinical Investigation, 2019) one finds inhibition data, which are given here for 1 compound.

The structures appear in SMILES notation.

This test has as its target T1, MERTK (cMER) (Homo sapiens, UniProt Q12866).
T1 construct: purchased Thermo Fisher Scientific (Life Technologies) SelectScreen
The test is described as follows: SelectScreen Z'LYTE. Type of test: biochemical. An outline of the steps:
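SelectScreen broad panel; activity (Z'LYTE, Adapta) plus binding formats. ATP: Km app for CSF1R Z'LYTE; 10 for CAMK1 Adapta. Readout = % per kinase.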

T1 sequence (Q12866 21-999): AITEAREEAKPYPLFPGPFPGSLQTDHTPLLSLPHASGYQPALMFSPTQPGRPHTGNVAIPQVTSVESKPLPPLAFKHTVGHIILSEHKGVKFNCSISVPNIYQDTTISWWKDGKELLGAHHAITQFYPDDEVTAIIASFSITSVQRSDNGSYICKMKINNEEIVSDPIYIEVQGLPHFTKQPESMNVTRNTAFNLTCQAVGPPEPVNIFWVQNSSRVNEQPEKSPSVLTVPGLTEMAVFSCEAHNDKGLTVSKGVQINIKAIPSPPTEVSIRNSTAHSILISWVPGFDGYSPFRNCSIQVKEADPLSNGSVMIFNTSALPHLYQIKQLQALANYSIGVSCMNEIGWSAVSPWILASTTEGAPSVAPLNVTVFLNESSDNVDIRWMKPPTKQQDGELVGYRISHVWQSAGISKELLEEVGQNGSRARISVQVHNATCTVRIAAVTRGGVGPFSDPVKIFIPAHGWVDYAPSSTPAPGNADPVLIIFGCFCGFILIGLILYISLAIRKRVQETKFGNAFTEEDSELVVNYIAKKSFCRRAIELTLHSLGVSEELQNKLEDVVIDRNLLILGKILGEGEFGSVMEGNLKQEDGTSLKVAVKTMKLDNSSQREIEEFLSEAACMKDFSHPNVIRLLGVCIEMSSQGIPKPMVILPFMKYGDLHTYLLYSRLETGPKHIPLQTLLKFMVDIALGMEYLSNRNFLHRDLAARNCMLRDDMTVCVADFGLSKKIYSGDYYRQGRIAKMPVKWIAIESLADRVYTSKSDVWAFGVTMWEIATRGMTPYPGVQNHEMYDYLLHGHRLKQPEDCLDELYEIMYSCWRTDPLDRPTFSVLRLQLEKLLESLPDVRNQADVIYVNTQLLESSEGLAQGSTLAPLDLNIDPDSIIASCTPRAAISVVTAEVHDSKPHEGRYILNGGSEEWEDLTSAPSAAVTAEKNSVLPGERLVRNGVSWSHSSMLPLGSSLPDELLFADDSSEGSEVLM

In general, inhibition refers to the share of the control response that was lost under treatment. Low readings indicate little suppression, high ones strong suppression. Compound `CN(C(=O)CN1CCOCC1)c1ccc2sc3c(-c4cccc5c(=O)cc(N6CC7CCC(C6)O7)oc45)cccc3c2c1` [NU5455] gave an inhibition at 1 µM of 8.3%.
